Measured values reported in ChEMBL document CHEMBL1139558, “Isolation, characterization and antiplasmodial activity of steroidal alkaloids from Funtumia elastica (Preuss) Stapf” (Bioorg Med Chem Lett, 2005).

Experiments:
Plasmodium falciparum = experiment: In vitro antiplasmodial activity for chloroquine-resistant Plasmodium falciparum FcB1; type: functional, organism-based
Rattus norvegicus = species on record: Rattus norvegicus; experiment: Selectivity Index is expressed as the ratio of cytotoxicity (IC50) against rat L-6 cell line to that of antiplasmodial activity (IC50) of chloroquine-resistant strain FcB1 of Plasmodium falciparum; type: functional
[1] = Cytotoxicity against rat L-6 cell line; type: functional, cell-based; details: L6

| Compound | IC50 (Plasmodium falciparum) | Selectivity index (Rattus norvegicus) | IC50 [1] |
| --- | --- | --- | --- |
| C[C@H]1[C@H]2CC[C@H]3[C@@H]4CC=C5C[C@@H](N(C)C)CC[C@]5(C)[C@H]4CC[C@]23CN1C [CONESSINE] | 1.04 µM | 14 | 14.6 µM |
| CN[C@H]1CC[C@@]2(C)C(=CC[C@H]3[C@@H]4CC[C@@H]5[C@H](C)N(C)C[C@@]54[C@H](OC(=O)CC=C(C)C)C[C@@H]32)C1 | 0.97 µM | 7.7 | 7.49 µM |
| CN[C@H]1CC[C@@]2(C)C(=CC[C@H]3[C@@H]4CC[C@@H]5[C@H](C)N(C)C[C@@]54CC[C@@H]32)C1 [ISOCONESSIMINE] | 3.39 µM | 10.8 | 36.6 µM |
| CC(C)=CCC(=O)O[C@@H]1C[C@H]2[C@@H](CC=C3C[C@@H](N(C)C)CC[C@@]32C)[C@@H]2CC[C@@H]3[C@H](C)N(C)C[C@]312 | 1.13 µM | 4.5 | 5.13 µM |
